# Results as given in patent US8535897B2, “Assays for non-apoptotic cell death and uses thereof” (The Trustees of Columbia University in the City of New York, priority 2006, dated 2013).
# Columns and labels:
# SW872 = assay: Response of tumor cell lines to erastin (dose-response); type: cell-based; conditions: SW 872
# Experimental: (§1) In certain aspects, the invention provides that erastin is lethal to tumor cells with activating mutations in proteins downstream of RAS proteins. Dose-response of 30 tumor cell lines to erastin was measured, and at least 50% inhibition of cell viability in 19 of the 30 tumor cell lines was formed. Numerous sarcoma-derived tumor cell lines were sensitive to erastin, consistent with the fact that erastin was discovered in an engineered tumor cell line created from human fibroblasts. Non-limiting examples include, HT1080 fibrosarcoma cells. HT1080 fibrosarcoma cells, which have a known activating mutation in NRAS, (Plattner, R. et al. Differential contribution of the ERK and JNK mitogen-activated protein kinase cascades to Ras transformation of HT1080 fibrosarcoma and DLD-1 colon carcinoma cells. Oncogene. 18: 1807-17 (1999), were quite sensitive to erastin. In order to determine whether RAS-activated signaling was modulated in cell lines that respond to erastin, the phosphorylation status of ERK1/2 in 12 sarcoma cell lines with a range of sensitivities to erastin was evaluated. In certain aspects, the invention provides a non-zero correlation, such as for example, a correlation coefficient of 0.41, between ERK1/2 phosphorylation status and erastin sensitivity in these cell lines.
# (§2) Given that oncogenic RAS activates at least four downstream pathways, analysis was performed to identify which downstream effects were necessary for erastin sensitivity. In certain embodiments, the invention provides that erastin inhibits growth and kills genuine tumor cells with RAS mutations. In other embodiments, the invention provides measures of the dose-response of 29 tumor cell lines to erastin, wherein there is at least 50% inhibition of viability in 18 of the cell lines (Table 4). Numerous sarcoma-derived tumor cell lines were sensitive to erastin, consistent with the fact that erastin was discovered in an engineered tumor cell line created from human fibroblasts.
# U973 = assay: as above; type: cell-based; conditions: U937
# Experimental: as §1, §2
# VDAC2 = assay: VDAC isoform levels after erastin treatment (quantitative 2D western); type: cell-based, human; conditions: BJ-TERT/LT/ST/RASV12 cells
# Excerpt: (§3) (a) Quantitative western blot of VDAC/eif4E protein ratio in engineered BJ-derived cells. (b) Identification of VDAC isoforms in BJ-TERT/LT/ST/RAS^V12 cells using 2-D electrophoresis. i) VDAC1, VDAC2 and VDAC3 were detected by a rabbit polyclonal VDAC antibody (Abcam/ab3434), ii) VDAC1 was detected by a mouse monoclonal VDAC1 antibody (Calbiochem/529534), iii) VDAC2 was detected by a goat polyclonal VDAC2 antibody (Abcam/ab22170), iv) An illustration of 3 isoforms of VDAC separated by the 2-D gel electrophoresis. (c) BJ-TERT/LT/ST/RASV12 cells were treated with erastin for the indicated time and levels of each VDAC isoform determined by quantitative 2D western. (d,e) Infection with VDAC3 shRNA protects erastin-treated cells. 293T cells were transfected with shRNA-plasmid construct using FuGene and viral supernatant transferred to HT1080 cells, and treated with erastin dilutions and viability measured using Trypan Blue exclusion. […] (f) Quantitative RT-PCR measurements of mRNA levels of the 3 VDAC isoforms after infection with shVDAC3. Knockdown was determined by normalizing to the levels in the shGFP-infected control. […] (g) Mitochondria were purified from yeast expressing murine VDAC3 in place of yeast VDAC, and the rate of NADH uptake determined in the presence or absence of erastin, or in shocked mitochondria in which the outer membrane was disrupted. […]
# VDAC3 = assay: as above; type: cell-based, human; conditions: BJ-TERT/LT/ST/RASV12 cells
# Excerpt: as §3
smiles,measurement,setting,value
CCOc1ccccc1-n1c(C(C)N2CCN(C(=O)COc3ccc(Cl)cc3)CC2)nc2ccccc2c1=O (stereo not shown) [erastin],Erastin Sensitivity (maximum killing induced by erastin),SW872,0.00
same,Erastin Sensitivity (maximum killing induced by erastin),U973,0.73
same,treatment time after which VDAC2 became undetectable,VDAC2,10 h
same,treatment time after which VDAC3 was no longer detectable,VDAC3,8 h
